From US6365175B1 (Unilever Patent Holdings, priority 1998, dated 2002)
Entries after “also recorded” stand apart in the source; their conditions may differ.

Tests used:
[1] = system: intracellular adhesion molecules (ICAM); test: Glutathione (GSH) depletion model in fibroblasts (BSO and PMA), ICAM; type: cell-based, human; conditions: BSO and PMA treated fibroblasts, FIG. 3
Description: (§1) Primary human foreskin fibroblasts at passage 2 (P2) were seeded into 96-well plates at 10000 cells/well and maintained for 24 hours in an atmosphere of 5% carbon dioxide in Dulbeccos Modified Eagles Medium (DMEM) supplemented with 10% foetal calf serum. […] Phorbal myristate acetate (PMA) in ethanol/cell media ([…]) was added to the media and the cells incubated for a futher 24 hours. PMA represents an external stressor which induces oxidative stress and inflammatory responses in cells. The fibroblasts/media were then analysed as described below immediately or snap frozen in liquid nitrogen and stored at −70° C. for future analysis. The cells were then counted to ensure no effect on cell number.
Media were discarded and cells washed with Dulbecco PBS. To the washed cells, 150 μl 0.1% Triton X-100 (Sigma) was added for 3 minutes to extract ICAM from cell membrane. The extracts were transferred to Eppendoff centrifuge tubes and centrifuged at 1000 g for 2 min to remove cell debris. A volume of 100 μl supernatant was used for ICAM assay. The soluble ICAM-1 was assessed with commercially available immunoenzymometric assay kit (R&D Systems). Concentrations of ICAM-1 in the samples were determined based on parallelly running standard curve.
L-Buthionine sulfoximine (BSO, Sigma), a specific inhibitor of γ-glutamylcysteine synthetase, was used to deplete intracellular GSH levels. This depletion model is based on the natural degradation of GSH while synthesis is inhibited. BSO is added to the fibroblast cell media after 24 hours (0.25 mM), this is predissolved in DMSO (DMSO, final concentration <1%). In addition, where stated, the antioxidants Epigallocatechingallate (ECGC) and Quercetin were also added to the media after 24 h. The former was dissolved directly in the media, quercetin was initially dissolved in ethanol, this was then diluted 500 fold into the media.

[2] = system: decorin; test: Dot blot assay for decorin protein in dermal fibroblast conditioned medium; type: cell-based, human; conditions: for Decorin (% of control): fibroblasts, mean ± SD; for decorin levels in fibroblasts: single agent, in words
Description: Primary human foreskin fibroblasts at passage 2 (P2) were seeded into 12-well plates at 10000 cells/cm^2 and maintained for 24 hours in an atmosphere of 5% carbon dioxide and 4% oxygen in Dulbeccos Modified Eagles Medium (DMEM) supplemented with 10% foetal calf serum. After this time the cells were washed with serum free DMEM and then incubated in fresh serum free DMEM for a further 60 hours. The fibroblast monolayers were then washed again with serum free DMEM. […] This fibroblast conditioned medium was either analysed immediatedly or snap frozen in liquid nitrogen and stored at −70° C. for future analysis. The cells were then counted and data from the dot-blot analysis subsequently standardised to cell number.
Samples of conditioned medium from dermal fibroblasts treated with vehicle (as a control) or test reagents were supplemented with 20 mM dithiothreitol (1:10 dilution of 200 mM stock solution) and 0.1% sodium dodecylsulphate (1:100 dilution of 10% stock solution), mixed well and then incubated at 75° C. for 2 minutes. A standard for the assay was generated by serial dilution of neat fibroblast conditioned medium from fibroblasts seeded at 10000 cells/cm^2 in a 175 cm^2 flask and maintained in serum free DMEM as described above. Assay samples were subsequently applied in triplicate to a prewetted sheet of Immobilon-P transfer membrane using the 96-well Bio-Dot Apparatus from Bio-Rad as described in the manufacturers guidelines. Approximately 200 μl of medium was applied per well. The medium was allowed to filter through the membrane under gravity (30 minutes) after which the membrane was washed twice with PBS (200 μl). These PBS washes were allowed to filter through the membrane under gravity (2×15 minutes). The Bio-Dot apparatus was then attached to a vacuum manifold and a third and final PBS wash carried out under suction. The apparatus was disassembled, the membrane removed and quickly cut as required before being placed in blocking buffer overnight at 4° C. Membranes prepared for decorin analysis were blocked with 3% (w/v) bovine serum albumin (BSA)/ 0.1% (v/v) Tween 20 in phosphate buffered saline (PBS), whilst those for procollagen-I analysis were blocked with 5% (w/v) non fat dried milk powder/0.05% Tween 20 in PBS. The following day, the membranes were probed with 1:10000 dilution of primary antibodies to human decorin (rabbit polyclonal; Biogenesis) for 2 hours at room temperature. The membranes were subsequently washed with TBS/0.05% Tween 20 (3×5 minutes) and then incubated with 1:1000 dilution of ^125I-conjugated anti-rat or anti-rabbit F(ab′)2 fragments (Amersham) as required for 1 hour at room temperature. Following this the Immobilon strips were again washed with TBS/Tween 20 (3×5 minutes) before being allowed to dry in air at room temperature. The dried membranes were wrapped in cellophane and exposed to a Molecular Dynamics storage phosphor screen for 16-18 hours. At the end of this time the exposed screen was scanned by a phosphorimager (Molecular Dynamics Phosphorimager SF) using ImageQuant™ software. Dot intensity was assessed by computer-assisted image analysis using the quantification tools in ImageQuant™, standardised to cell number and the effects of various test reagents on decorin and procollagen-I synthesis were determined relative to a vehicle treated control value of 100 arbitrary units.

[3] = system: Prostaglandin E2 (PGE2) production; test: PMA-induced PGE2 production, fibroblast cell assay; type: cell-based, human; conditions: FIG. 1
Description: (§2) It is emphasized that the anti-inflammatory effects were determined by in vitro tests wherein the production of intracellular adhesion molecules (=ICAM) and Prostaglandin E2 (=PGE2) production by the human skin fibroblasts is measured after being induced by the inflammatory modulus phorbyl myristyl acetate (PMA). Effects on basal PGE2 levels in keratinocytes are also measured. A reduction of the levels of ICAM and PGE2 is indicative for the anti-inflammatory effect.
Primary human foreskin fibroblasts at passage 2 (P2) were seeded into 96-well plates at 10000 cells/well and maintained for 24 hours in an atmosphere of 5% carbon dioxide in Dulbeccos Modified Eagles Medium (DMEM) supplemented with 10% foetal calf serum. […] The fibroblasts/media were then analysed as described below immediately or snap frozen in liquid nitrogen and stored at −70° C. for future analysis. The cells were then counted to ensure no effect on cell number.
Volumes of 50 μl culture medium were taken for PGE2 assay after gently shaking the culture plate. PGE2 levels in the medium were determined with a Biotrak PGE2 immunoassay kit (Amersham, UK). The assay is based on the competition between unlabelled PGE2 in the sample and a fixed quantity of horseradish peroxidase labelled PGE2 for a limited amount of fixed PGE2 specific antibody. […]

[4] = system: intracellular adhesion molecules (ICAM); test: ICAM-1 assay in fibroblasts, basal and PMA-induced; type: cell-based, human; conditions: FIG. 2
Description: as §2
as §1, with “PMA represents an external stressor which induces oxidative stress and inflammatory responses in cells.” left out
Media were discarded and cells washed with Dulbecco PBS. […] The soluble ICAM-1 was assessed with commercially available immunoenzymometric assay kit (R&D Systems). Concentrations of ICAM-1 in the samples were determined based on parallelly running standard curve.

[5] = system: basal PGE2 levels in keratinocytes; test: Keratinocyte PGE2 assay; type: cell-based; conditions: 0.1 μM and 1 μM, 24 h
Source text: The medium was then removed and assayed for the pro-inflammatory PGE2 content by Enzyme-linked immunoassay.

| Compound | ICAM response ([1]; antioxidant alone 10 μM) | Decorin (% of control) ([2]; 1 μg / ml) | Decorin (% of control) ([2]; 2.5 μg / ml) | Decorin (% of control) ([2]; 5 μg / ml) | decorin levels in fibroblasts [2] | also measured |
| --- | --- | --- | --- | --- | --- | --- |
| O=C(O[C@@H]1Cc2c(O)cc(O)cc2O[C@@H]1c1cc(O)c(O)c(O)c1)c1cc(O)c(O)c(O)c1 [EGCG, Epigallocatechingallate] | decrease the ICAM response | 167.5 ± 11.8 % of control | 188.6 ± 9.4 % of control | 258.2 ± 6.1 % of control | can also exert this effect |  |
| O=C(O)c1cc(O)c(O)c(O)c1 [Gallic acid] |  | 136.9 ± 4.2 % of control | 163.4 ± 6.5 % of control | 161.8 ± 6.6 % of control | can also exert this effect |  |
| CCCCCCCCCCC/C=C\CCCCC(=O)O [Petroselinic acid] |  |  |  |  | boost decorin levels | PGE2 response ([3]; PMA treated cells pre-incubated with 0.1, 1.0, 10 and 100 μM): significant decrease; inflammatory response as measured by PGE2 production ([3]; PMA-challenged fibroblasts, 0.1 μM): dramatically reduces; production of ICAM / ICAM response ([4]; PMA-stimulated fibroblasts pre-incubated with 0.1, 1.0, 10 and 100 μM): reduction in ICAM; also recorded: significant decrease; production of ICAM ([4]; basal condition (control), fibroblasts, 100 μM): reduction in ICAM; ICAM response ([1]; petroselinic acid alone 0.01 μM): no effect; basal levels of secreted PGE2 ([5]; FIG. 5): significantly reduce; basal levels of secreted PGE2 ([5]; FIG. 5, listed as petroselinic acid): reduced the basal levels |
| O=c1c(O)c(-c2ccc(O)c(O)c2)oc2cc(O)cc(O)c12 [Quercetin] | decrease the ICAM response |  |  |  |  |  |
| O=c1c(-c2ccc(O)cc2)coc2cc(O)ccc12 [diadzein] |  |  |  |  | can also exert this effect |  |
| O=c1c(-c2ccc(O)cc2)coc2cc(O)cc(O)c12 [genistein] |  |  |  |  | can also exert this effect |  |
